Laboratory results: PubChem BioAssay (NCI)
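48-hour exposure; five concentrations; linearly interpolated endpoints. GI50 is the concentration that inhibits growth by half. TGI marks complete inhibition of growth.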

Key:
Test in all cases: growth of human tumour cells (NCI), 48 h
BT-549 breast = tested on: BT-549 breast
NCI-H460 lung = tested on: NCI-H460 lung
IGROV1 ovarian = tested on: IGROV1 ovarian
NCI/ADR-RES ovarian = tested on: NCI/ADR-RES ovarian
NCI-H522 lung = tested on: NCI-H522 lung
SF-295 CNS = tested on: SF-295 CNS
SNB-75 CNS = tested on: SNB-75 CNS
A549 NSCLC = tested on: A549 NSCLC
SNB-19 CNS = tested on: SNB-19 CNS
EKVX NSCLC = tested on: EKVX NSCLC
ACHN renal = tested on: ACHN renal
HOP-92 NSCLC = tested on: HOP-92 NSCLC
UACC-257 melanoma = tested on: UACC-257 melanoma
MDA-MB-435 = tested on: MDA-MB-435
OVCAR-4 ovarian = tested on: OVCAR-4 ovarian
SK-OV-3 ovarian = tested on: SK-OV-3 ovarian
DU-145 prostate = tested on: DU-145 prostate
SF-539 CNS = tested on: SF-539 CNS
TK-10 renal = tested on: TK-10 renal
T-47D breast = tested on: T-47D breast
SF-268 CNS = tested on: SF-268 CNS
SW-620 colon = tested on: SW-620 colon
HL-60(TB) leukemia = tested on: HL-60(TB) leukemia
786-0 renal = tested on: 786-0 renal
SR leukemia = tested on: SR leukemia
HCT-116 colon = tested on: HCT-116 colon
COLO 205 colon = tested on: COLO 205 colon
MOLT-4 leukemia = tested on: MOLT-4 leukemia
A498 renal = tested on: A498 renal
KM12 colon = tested on: KM12 colon
MCF7 breast = tested on: MCF7 breast
PC-3 prostate = tested on: PC-3 prostate
HCC-2998 colon = tested on: HCC-2998 colon
CCRF-CEM leukemia = tested on: CCRF-CEM leukemia
HT29 colon = tested on: HT29 colon

Question: For `C/C(=C\c1csc(C)n1)[C@@H]1C[C@@H]2O[C@@H]2CCC[C@H](C)[C@H](O)[C@@H](C)C(=O)C(C)(C)[C@@H](O)CC(=O)O1`, which TGI (BT-549 breast) is on record?
Answer: The TGI was over 100000 nM.

Question: And the TGI (NCI-H460 lung)?
Answer: The TGI was over 100000 nM.

Question: What about the TGI (IGROV1 ovarian) of the same compound?
Answer: Its TGI is over 100000 nM.

Question: And the TGI (NCI/ADR-RES ovarian)?
Answer: Its TGI is 0.598 nM.

Question: What about the TGI (NCI-H522 lung) of the same compound?
Answer: Its TGI is under 0.1 nM.

Question: What about the TGI (SF-295 CNS) of the same compound?
Answer: Its TGI is under 0.1 nM.

Question: What about the TGI (SNB-75 CNS) of the same compound?
Answer: The TGI was under 0.1 nM.

Question: What about the TGI (A549 NSCLC) of the same compound?
Answer: Its TGI is over 100000 nM.

Question: And the TGI (SNB-19 CNS)?
Answer: The TGI was over 100000 nM.

Question: What about the TGI (EKVX NSCLC) of the same compound?
Answer: Its TGI is 525 nM.

Question: And the TGI (ACHN renal)?
Answer: The TGI was over 100000 nM.

Question: What about the TGI (HOP-92 NSCLC) of the same compound?
Answer: The TGI was 608 nM.

Question: And the TGI (UACC-257 melanoma)?
Answer: Its TGI is over 100000 nM.

Question: And the TGI (MDA-MB-435)?
Answer: The TGI was under 0.1 nM.

Question: What about the GI50 (OVCAR-4 ovarian) of the same compound?
Answer: The GI50 was 23000 nM.

Question: And the TGI (OVCAR-4 ovarian)?
Answer: Its TGI is over 100000 nM.

Question: And the TGI (SK-OV-3 ovarian)?
Answer: Its TGI is 398 nM.

Question: What about the TGI (DU-145 prostate) of the same compound?
Answer: Its TGI is 4.64 nM.

Question: And the TGI (SF-539 CNS)?
Answer: The TGI was under 0.1 nM.

Question: What about the TGI (TK-10 renal) of the same compound?
Answer: The TGI was over 100000 nM.

Question: And the TGI (T-47D breast)?
Answer: The TGI was over 100000 nM.

Question: And the TGI (SF-268 CNS)?
Answer: Its TGI is over 100000 nM.

Question: And the TGI (SW-620 colon)?
Answer: Its TGI is 18700 nM.

Question: And the TGI (HL-60(TB) leukemia)?
Answer: The TGI was over 100000 nM.

Question: And the TGI (786-0 renal)?
Answer: Its TGI is over 100000 nM.

Question: What about the TGI (SR leukemia) of the same compound?
Answer: Its TGI is 6.09 nM.

Question: What about the TGI (HCT-116 colon) of the same compound?
Answer: Its TGI is over 100000 nM.

Question: What about the TGI (COLO 205 colon) of the same compound?
Answer: Its TGI is 80.4 nM.

Question: And the TGI (MOLT-4 leukemia)?
Answer: The TGI was over 100000 nM.

Question: What about the TGI (A498 renal) of the same compound?
Answer: The TGI was 333 nM.

Question: What about the TGI (KM12 colon) of the same compound?
Answer: Its TGI is over 100000 nM.

Question: What about the TGI (MCF7 breast) of the same compound?
Answer: Its TGI is 349 nM.

Question: What about the TGI (PC-3 prostate) of the same compound?
Answer: The TGI was over 100000 nM.

Question: What about the TGI (HCC-2998 colon) of the same compound?
Answer: The TGI was under 0.1 nM.

Question: What about the TGI (CCRF-CEM leukemia) of the same compound?
Answer: Its TGI is over 100000 nM.

Question: And the TGI (HT29 colon)?
Answer: The TGI was 0.586 nM.
